The CheMixHub ionic liquid set
± gives the uncertainty stated by the source.

Assay: xn = mol fraction of the nth substance listed

CCCCCCCCn1cc[n+](C)c1.F[B-](F)(F)F + CC1COC(=O)O1
Conditions | viscosity [mPa·s]
303.15 K, 99.7 kPa, x2 = 0.4086 | 38.9 ± 5.5

CCCC[N+]1(C)CCCC1.O=S(=O)([N-]S(=O)(=O)C(F)(F)F)C(F)(F)F + CC1COC(=O)O1
Conditions | electrical conductivity [S/m] | viscosity [mPa·s]
253.15 K, 101 kPa, x2 = 0.11 | 0.026 ± 0.002 | –
253.15 K, 101 kPa, x2 = 0.21 | 0.04 ± 0.002 | –
253.15 K, 101 kPa, x2 = 0.47 | 0.108 ± 0.002 | –
253.15 K, 101 kPa, x2 = 0.63 | 0.183 ± 0.002 | –
253.15 K, 101 kPa, x2 = 0.79 | 0.27 ± 0.002 | –
253.15 K, 101 kPa, x2 = 0.89 | 0.283 ± 0.002 | –
258.15 K, 101 kPa, x2 = 0.16 | 0.052 ± 0.002 | –
258.15 K, 101 kPa, x2 = 0.26 | 0.073 ± 0.002 | –
258.15 K, 101 kPa, x2 = 0.58 | 0.199 ± 0.002 | –
263.15 K, 101 kPa, x2 = 0.05 | 0.053 ± 0.002 | –
263.15 K, 101 kPa, x2 = 0.37 | 0.14 ± 0.002 | –
263.15 K, 101 kPa, x2 = 0.53 | 0.225 ± 0.002 | –
268.15 K, 101 kPa, x2 = 0.68 | 0.418 ± 0.002 | –
273.15 K, 101 kPa, x2 = 0 | 0.109 ± 0.002 | –
273.15 K, 101 kPa, x2 = 0.26 | 0.195 ± 0.002 | –
273.15 K, 101 kPa, x2 = 0.42 | 0.281 ± 0.002 | –
273.15 K, 101 kPa, x2 = 0.74 | 0.535 ± 0.002 | –
278.15 K, 101 kPa, x2 = 0.26 | 0.253 ± 0.002 | –
278.15 K, 101 kPa, x2 = 0.95 | 0.504 ± 0.002 | –
283.15 K, 101 kPa, x2 = 0.05 | 0.212 ± 0.002 | –
283.15 K, 101 kPa, x2 = 0.16 | 0.257 ± 0.002 | –
283.15 K, 101 kPa, x2 = 0.37 | 0.382 ± 0.002 | –
283.15 K, 101 kPa, x2 = 0.58 | 0.557 ± 0.002 | –
283.15 K, 101 kPa, x2 = 0.68 | 0.654 ± 0.002 | –
283.15 K, 101 kPa, x2 = 0.89 | 0.698 ± 0.002 | –
283.15 K, 101 kPa, x2 = 0.95 | 0.566 ± 0.002 | –
283.15 K, 101 kPa, x2 = 0.97 | 0.458 ± 0.002 | –
288.15 K, 101 kPa, x2 = 0.26 | 0.384 ± 0.002 | –
288.15 K, 101 kPa, x2 = 0.47 | 0.547 ± 0.002 | –
288.15 K, 101 kPa, x2 = 0.74 | 0.787 ± 0.002 | –
288.15 K, 101 kPa, x2 = 0.79 | 0.817 ± 0.002 | –
293.15 K, 100 kPa, x2 = 0.8 | 0.93 ± 0.06 | 7.8 ± 1.2
293.15 K, 101 kPa, x2 = 0 | 0.303 ± 0.002 | 86.1 ± 1.3
293.15 K, 101 kPa, x2 = 0.53 | 0.689 ± 0.002 | 21.23 ± 0.18
293.15 K, 101 kPa, x2 = 0.79 | 0.91 ± 0.002 | 7.77 ± 0.07
298.15 K, 101 kPa, x2 = 0.32 | 0.581 ± 0.002 | 28.28 ± 0.28
298.15 K, 101 kPa, x2 = 0.37 | – | 25.45 ± 0.25
298.15 K, 101 kPa, x2 = 0.42 | 0.678 ± 0.002 | 22.81 ± 0.22
298.15 K, 101 kPa, x2 = 0.63 | 0.892 ± 0.002 | 12.82 ± 0.12
303.15 K, 101 kPa, x2 = 0.21 | 0.574 ± 0.002 | 29.14 ± 0.28
303.15 K, 101 kPa, x2 = 0.42 | 0.771 ± 0.002 | 19 ± 0.18
303.15 K, 101 kPa, x2 = 0.63 | 1.001 ± 0.002 | 10.87 ± 0.1
303.15 K, 101 kPa, x2 = 0.74 | 1.091 ± 0.002 | 7.36 ± 0.06
303.15 K, 101 kPa, x2 = 0.84 | 1.099 ± 0.002 | 4.68 ± 0.04
308.15 K, 101 kPa, x2 = 0.37 | 0.816 ± 0.002 | 17.76 ± 0.16
313.15 K, 101 kPa, x2 = 0.21 | 0.75 ± 0.002 | 20.27 ± 0.18
313.15 K, 101 kPa, x2 = 0.32 | 0.858 ± 0.002 | 16.62 ± 0.15
313.15 K, 101 kPa, x2 = 0.47 | 1.036 ± 0.002 | 12.28 ± 0.11
313.15 K, 101 kPa, x2 = 0.79 | 1.3 ± 0.002 | 4.64 ± 0.04
313.15 K, 101 kPa, x2 = 0.84 | 1.271 ± 0.002 | 3.75 ± 0.03
313.15 K, 101 kPa, x2 = 0.97 | 0.721 ± 0.002 | –
318.15 K, 101 kPa, x2 = 0 | – | 29.72 ± 0.3
318.15 K, 101 kPa, x2 = 0.05 | – | 25.14 ± 0.23
318.15 K, 101 kPa, x2 = 0.47 | – | 10.64 ± 0.09
318.15 K, 101 kPa, x2 = 0.89 | – | 2.77 ± 0.02

100 kPa, frequency 0.003 MHz
Conditions | electrical conductivity [S/m]
297.1 K, x1 = 0.8 | 0.396 ± 0.024
299.8 K, x1 = 0.4 | 0.804 ± 0.048
299.9 K, x1 = 0.8 | 0.413 ± 0.025
310.9 K, x1 = 0.8 | 0.527 ± 0.032
313.5 K, x1 = 0.4 | 0.931 ± 0.056
313.7 K, x1 = 0.2 | 1.15 ± 0.069
313.7 K, x1 = 0.8 | 0.552 ± 0.033
316.2 K, x1 = 0.2 | 1.17 ± 0.07
319.3 K, x1 = 0.6 | 0.727 ± 0.044
322.3 K, x1 = 0.9 | 0.559 ± 0.034
327.6 K, x1 = 0.6 | 0.788 ± 0.047
330.3 K, x1 = 0.2 | 1.26 ± 0.076
330.6 K, x1 = 0.9 | 0.636 ± 0.038
338.9 K, x1 = 0.2 | 1.31 ± 0.078
338.9 K, x1 = 0.8 | 0.768 ± 0.046
341.4 K, x1 = 0.8 | 0.788 ± 0.047
341.6 K, x1 = 0.6 | 0.886 ± 0.053
346.8 K, x1 = 0.4 | 1.18 ± 0.071
349.7 K, x1 = 0.4 | 1.21 ± 0.072

CCCC[P+](CC)(CCCC)CCCC.F[B-](F)(F)F + CC#N
viscosity [mPa·s], 100 kPa
Conditions | x1 = 0.004068 | x1 = 0.008179 | x1 = 0.01204 | x1 = 0.01601 | x1 = 0.01998 | x1 = 0.02358 | x1 = 0.02792 | x1 = 0.03171 | x1 = 0.03517 | x1 = 0.03939
293.15 K | 0.373 ± 0.023 | 0.392 ± 0.024 | 0.411 ± 0.025 | 0.431 ± 0.026 | 0.452 ± 0.027 | 0.473 ± 0.029 | 0.497 ± 0.03 | 0.521 ± 0.032 | 0.542 ± 0.033 | 0.57 ± 0.035
298.15 K | 0.355 ± 0.021 | 0.374 ± 0.023 | 0.391 ± 0.024 | 0.41 ± 0.025 | 0.429 ± 0.026 | 0.448 ± 0.027 | 0.471 ± 0.029 | 0.494 ± 0.03 | 0.513 ± 0.031 | 0.539 ± 0.033
303.15 K | 0.34 ± 0.021 | 0.357 ± 0.022 | 0.373 ± 0.023 | 0.391 ± 0.024 | 0.409 ± 0.025 | 0.426 ± 0.026 | 0.448 ± 0.027 | 0.469 ± 0.028 | 0.486 ± 0.029 | 0.511 ± 0.031
308.15 K | 0.326 ± 0.02 | 0.342 ± 0.021 | 0.356 ± 0.022 | 0.372 ± 0.023 | 0.389 ± 0.024 | 0.406 ± 0.025 | 0.426 ± 0.026 | 0.446 ± 0.027 | 0.462 ± 0.028 | 0.486 ± 0.03
313.15 K | 0.313 ± 0.019 | 0.327 ± 0.02 | 0.341 ± 0.021 | 0.356 ± 0.022 | 0.372 ± 0.023 | 0.389 ± 0.024 | 0.406 ± 0.025 | 0.424 ± 0.026 | 0.44 ± 0.027 | 0.463 ± 0.028
318.15 K | 0.3 ± 0.018 | 0.313 ± 0.019 | 0.326 ± 0.02 | 0.341 ± 0.021 | 0.356 ± 0.022 | 0.37 ± 0.022 | 0.387 ± 0.023 | 0.404 ± 0.024 | 0.419 ± 0.025 | 0.44 ± 0.027

CCCC[n+]1ccn(C)c1.[Cl-] + CC#N
298.15 K, 101 kPa, x2 = 0.8012
Conditions | electrical conductivity [S/m] | viscosity [mPa·s]
– | 1.53 ± 0.03 | 3.52 ± 0.65

CCCC[n+]1ccn(C)c1.COP(=O)([O-])OC + CC(=O)O.CC(=O)[O-].CC[NH+](CC)CCO
101 kPa, x2 = 0
Conditions | viscosity [mPa·s]
283.15 K | 2142 ± 110
298.15 K | 609 ± 21
353.15 K | 36.02 ± 0.46
358.15 K | 30.38 ± 0.38

CCCC[n+]1ccn(C)c1.COP(=O)([O-])OC + CC(=O)[O-].CCCC[NH2+]CCO
101 kPa, x2 = 0
Conditions | viscosity [mPa·s]
278.15 K | 3503 ± 200
283.15 K | 2142 ± 110
288.15 K | 1361 ± 62
293.15 K | 895 ± 36
298.15 K | 609 ± 21
303.15 K | 426 ± 13
308.15 K | 305.8 ± 8.1
313.15 K | 224.9 ± 5.1
318.15 K | 168.9 ± 3.3
323.15 K | 129.4 ± 2.2
328.15 K | 100.9 ± 1.5
333.15 K | 79.9 ± 1.1
338.15 K | 64.25 ± 0.82
343.15 K | 52.35 ± 0.65
348.15 K | 43.18 ± 0.55
353.15 K | 36.02 ± 0.46
358.15 K | 30.38 ± 0.38
363.15 K | 25.86 ± 0.33
368.15 K | 22.22 ± 0.28
373.15 K | 19.25 ± 0.24

[Cl-].[NH4+] + CC(=O)[O-].CC[n+]1ccn(C)c1
101 kPa
Conditions | electrical conductivity [S/m] | viscosity [mPa·s]
298.15 K, x1 = 0.0505 | 0.234 ± 0.0047 | 172 ± 11
303.15 K, x1 = 0.0505 | 0.308 ± 0.0062 | 124.6 ± 8.2
313.15 K, x1 = 0.0999 | 0.431 ± 0.0086 | 91.7 ± 5.9
313.15 K, x1 = 0.1702 | 0.341 ± 0.0068 | 142.8 ± 9.3
318.15 K, x1 = 0.0505 | 0.622 ± 0.012 | 55.4 ± 3.6
323.15 K, x1 = 0.0505 | 0.755 ± 0.015 | 44 ± 2.8
